Laboratory results published in article PMC4102782, “Dual Aurora A and JAK2 kinase blockade effectively suppresses malignant transformation” (Oncotarget, 2014).

Tests used:
Aurora A = molecular target: T1, Aurora A (Homo sapiens, UniProt O14965); test: HotSpot kinase assay (Reaction Biology), Aurora A; assay type: biochemical; conditions: in vitro, HotSpot method
T1 construct: purchased Reaction Biology Inc
T1 sequence (O14965 1-403): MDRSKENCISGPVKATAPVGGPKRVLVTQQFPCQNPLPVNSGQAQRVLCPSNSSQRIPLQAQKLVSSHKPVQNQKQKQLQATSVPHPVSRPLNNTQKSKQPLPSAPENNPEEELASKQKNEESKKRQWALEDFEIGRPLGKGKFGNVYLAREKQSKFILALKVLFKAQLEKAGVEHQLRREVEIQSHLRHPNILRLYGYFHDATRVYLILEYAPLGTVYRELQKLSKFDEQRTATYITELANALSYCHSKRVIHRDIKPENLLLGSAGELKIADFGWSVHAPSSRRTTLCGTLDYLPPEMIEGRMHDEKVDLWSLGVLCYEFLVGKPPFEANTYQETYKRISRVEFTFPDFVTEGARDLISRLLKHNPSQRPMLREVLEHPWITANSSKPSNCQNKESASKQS

Aurora B = molecular target: T2, Aurora B (Homo sapiens, UniProt Q96GD4); test: HotSpot kinase assay (Reaction Biology), Aurora B; assay type: biochemical; conditions: in vitro, HotSpot method
T2 construct: purchased Reaction Biology Inc
T2 sequence (Q96GD4 whole entry): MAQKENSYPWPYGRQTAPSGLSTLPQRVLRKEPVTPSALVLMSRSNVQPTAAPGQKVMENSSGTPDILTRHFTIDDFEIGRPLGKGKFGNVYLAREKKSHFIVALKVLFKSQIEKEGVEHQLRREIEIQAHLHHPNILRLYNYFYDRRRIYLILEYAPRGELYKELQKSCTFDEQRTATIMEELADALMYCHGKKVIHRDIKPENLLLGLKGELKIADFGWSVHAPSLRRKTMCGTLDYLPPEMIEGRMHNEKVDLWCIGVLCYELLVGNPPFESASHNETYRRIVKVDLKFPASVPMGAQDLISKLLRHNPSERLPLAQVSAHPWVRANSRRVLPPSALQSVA

JAK2 = molecular target: T3, JAK2 (Homo sapiens, UniProt O60674); test: HotSpot kinase assay (Reaction Biology), JAK2; assay type: biochemical; conditions: in vitro, HotSpot method
T3 construct: purchased Reaction Biology Inc
T3 sequence (O60674 whole entry): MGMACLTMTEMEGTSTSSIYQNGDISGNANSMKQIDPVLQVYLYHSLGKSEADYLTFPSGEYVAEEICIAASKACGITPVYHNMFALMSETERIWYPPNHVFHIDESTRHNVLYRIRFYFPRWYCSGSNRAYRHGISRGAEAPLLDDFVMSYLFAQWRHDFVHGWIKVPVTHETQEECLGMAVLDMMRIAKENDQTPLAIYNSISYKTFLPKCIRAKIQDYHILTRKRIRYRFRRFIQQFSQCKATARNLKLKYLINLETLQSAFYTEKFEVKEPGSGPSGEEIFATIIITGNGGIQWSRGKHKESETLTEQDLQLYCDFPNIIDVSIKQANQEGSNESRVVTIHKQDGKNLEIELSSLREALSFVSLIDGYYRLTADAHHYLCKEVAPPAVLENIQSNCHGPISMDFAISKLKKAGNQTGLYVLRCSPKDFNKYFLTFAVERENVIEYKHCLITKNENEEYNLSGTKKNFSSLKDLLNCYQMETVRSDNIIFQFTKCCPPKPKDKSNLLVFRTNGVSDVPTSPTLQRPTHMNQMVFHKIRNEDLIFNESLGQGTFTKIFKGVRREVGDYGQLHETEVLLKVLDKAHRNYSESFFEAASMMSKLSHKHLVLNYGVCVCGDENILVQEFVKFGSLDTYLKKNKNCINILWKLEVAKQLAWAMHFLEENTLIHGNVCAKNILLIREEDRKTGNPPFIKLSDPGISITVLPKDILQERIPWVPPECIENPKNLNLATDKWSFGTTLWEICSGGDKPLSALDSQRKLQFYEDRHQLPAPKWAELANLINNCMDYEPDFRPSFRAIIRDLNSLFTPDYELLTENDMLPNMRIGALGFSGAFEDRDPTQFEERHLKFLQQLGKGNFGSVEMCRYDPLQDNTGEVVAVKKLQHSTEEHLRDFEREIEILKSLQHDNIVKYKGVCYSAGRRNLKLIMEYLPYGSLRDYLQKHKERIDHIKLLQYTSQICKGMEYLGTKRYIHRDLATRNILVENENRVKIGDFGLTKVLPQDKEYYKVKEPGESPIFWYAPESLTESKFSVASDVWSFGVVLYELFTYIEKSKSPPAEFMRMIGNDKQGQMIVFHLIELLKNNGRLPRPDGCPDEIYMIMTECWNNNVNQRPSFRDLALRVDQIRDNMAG

MDA-MB-468 cells [1] = test: Anchorage-dependent proliferation, MTT assay, MDA-MB-468; assay type: cell-based; conditions: Homo sapiens, 48 h; for IC50: MDA-MB-468, MTT
Method: (§1) Cells were cultured in 96 well plates at a density of 2,000 cells/ well. The cells with siRNA transfection or with the inhibitor treatment were monitored for viability using MTT at indicated time points. At the given time points, MTT reagent was added to the media and allowed to incubate for 3 h at 37° C in a humidified incubator at 5% CO2. The medium was then removed and MTT crystals were dissolved in DMSO (Sigma). Cell viability was quantified by reading the plates at an absorbance of 540 nm on a μQuant microplate reader using KC4 data analysis software (Bio-Tek Instruments). The 540 nm absorbance of vehicle-treated wells was used to define 100% proliferation. Each condition was performed in replicates of six wells.

MDA-MB-468 cells [2] = test: Soft agar anchorage-independent growth, MDA-MB-468; assay type: cell-based, human
Method: For analysis of anchorage-independent growth, log-phase growing cells were trypsinized, and triplicates of 1.5 × 10^3 cells per well were seeded in regular growth medium containing 0.3% agar (Sigma) and drug added at the indicated concentrations, as previously described. The cells were allowed to incubate at 37° C for 3 weeks and fed once per week with the inhibitor before 1 mg/ml MTT (Sigma) solution was added overnight to facilitate colony counting. Colonies were scored and counted according to size, as previously described.

MDA-MB-468 cells [3] = test: Matrigel Transwell invasion, MDA-MB-468; assay type: cell-based, human
Method: Cells were transfected with Aurora A and JAK2 for 48 h or with siRNA for 72 h or treated with the compounds for 24 h and then were trypsinized and resuspended in serum-free medium and placed in the upper chamber of the Matrigel-coated (0.8 μg/μL, BD Biosciences, San Diego, CA) Transwell insert (from 2 to 5 × 10^4 cells/well) and with 0.5% DMSO or the compounds at the indicated dose. Medium containing 10%FBS was placed in the lower chamber. […] Invading cells in the membrane were fixed with 100% methanol and stained with fresh prepared 0.2% crystal violet. Noninvasive cells in the upper chamber were removed by wiping the upper side of the membrane with a cotton swab, and cells located on the underside of the filter were observed and photographed under Olympus stereo microscope. The number of invading cells was counted using Image-Pro analysis software.

[4] = system: P-Histone H3 (Ser-10), Aurora B substrate; test: Western blot, phosphorylation of Histone H3 in MDA-MB-468 cells; assay type: cell-based, human; conditions: for effect on phosphorylation of Histone H3 (Ser-10): MDA-MB-468, increasing concentrations, 2 h
Method: (§2) Cells were plated in 6 cm dishes at a density of 2 × 10^5 cells/dish. Aurora A activity was determined by measuring autophosphorylation of Aurora A on Thr288 in cells that were synchronized by treatment with nocodazole (100 ng/mL) for 20 h prior to the treatment with Aurora inhibitors, whereas Aurora B activity was determined by measuring phosphorylation of histone H3 on Ser-10 (p-HH3). […] Cells were harvested after 2 h of treatment and processed for SDS−PAGE and Western blotting.
(§3) Cells were harvested from experiments of ectopic expression or knockdown using siRNA or the treatment with the inhibitors, washed, and then lysed using lysis buffer as previously described. The protein concentration of the lysate was measured, and the lysate was mixed with gel electrophoresis loading buffer, boiled for 5 minutes, separated by SDS-PAGE, and transferred to nitrocellulose membranes.

[5] = system: P-STAT3 (Y705), JAK2 substrate; test: Western blot, phosphorylation of STAT3 in MDA-MB-468 cells; assay type: cell-based, human
Method: as §2, §3

[6] = system: MDA-MB-468 tumor xenografts; test: MDA-MB-468 tumor xenografts in nude mice; assay type: in vivo; conditions: 50 mpk i.p. daily for 14 days
Method: (§4) Female nude mice (Charles River Laboratories, Wilmington, MA) were maintained and treated in accordance with the Institutional Animal Care and Use Committee procedures and guidelines. Exponentially growing MDA-MB-468 cells were harvested via trypsinization, pelleted at 400 g for 5 min. Cell pellets were re-suspended in DPBS (Invitrogen) at 10 x10^6 cells per 200 μl, and injected into right flank of mice. The tumor xenografts were monitored with an electronic caliper measurements and tumor volume (V) was calculated using the formula V= (W × L^2)/2, where width is the largest diameter and length is the smallest diameter. When the tumors reached ~ 250 mm^3, the animals were randomized and treatment schedules were implemented. Treatments consisted of intraperitoneal (i.p.) injections of vehicle control (50% polyethylene glycol (PG) + 15% 2-hydroxypropyl-beta-cyclodextrin (HPCD) (n=5) or AJI-100 (n=6) at 50 mg/kg, everyday for 14 days.

[7] = Mouse weights during xenograft study; assay type: in vivo, nude mice; conditions: 50 mpk i.p. daily, over the 14-day treatment period; vehicle 3.33 %
Method: as §4

HT29 cells = test: Anchorage-dependent proliferation, MTT assay, HT29; assay type: cell-based; conditions: Homo sapiens
Method: as §1

HT-29 cells [8] = test: Soft agar anchorage-independent growth, HT-29; assay type: cell-based, human; conditions: HT-29, Alisertib 2 μM
Method: The cells were allowed to incubate at 37° C for 3 weeks and fed once per week with the inhibitor before 1 mg/ml MTT (Sigma) solution was added overnight to facilitate colony counting. Colonies were scored and counted according to size, as previously described.

HT-29 cells [9] = test: Matrigel Transwell invasion, HT-29; assay type: cell-based, human; conditions: HT-29, Alisertib 4 μM
From the text: Medium containing 10%FBS was placed in the lower chamber. […] Invading cells in the membrane were fixed with 100% methanol and stained with fresh prepared 0.2% crystal violet. Noninvasive cells in the upper chamber were removed by wiping the upper side of the membrane with a cotton swab, and cells located on the underside of the filter were observed and photographed under Olympus stereo microscope. The number of invading cells was counted using Image-Pro analysis software.

[10] = system: Aurora A auto-phosphorylation (Thr-288); test: Western blot, Aurora A auto-phosphorylation in nocodazole-synchronized MDA-MB-468 cells; assay type: cell-based, human; conditions: MDA-MB-468, nocodazole-synchronized, 2 h
Method: as §2, §3

P-Histone H3 = test: Western blot, phosphorylation of Histone H3 in HT-29 cells; assay type: cell-based, human; conditions: HT-29, Alisertib 2 μM
Method: as §2, §3

P-STAT3 = test: Western blot, phosphorylation of STAT3 in HT-29 cells; assay type: cell-based, human; conditions: HT-29, Alisertib 2 μM
Method: as §2, §3

[11] = system: PARP cleavage and Caspase 3 activation in MDA-MB-468 cells; test: Apoptosis by Western blot of PARP cleavage and Caspase 3 activation, MDA-MB-468; assay type: cell-based, human; conditions: MDA-MB-468, single agent, low concentration, e.g. Alisertib 0.03 μM
Method: Cells were harvested from experiments of ectopic expression or knockdown using siRNA or the treatment with the inhibitors, washed, and then lysed using lysis buffer as previously described. The protein concentration of the lysate was measured, and the lysate was mixed with gel electrophoresis loading buffer, boiled for 5 minutes, separated by SDS-PAGE, and transferred to nitrocellulose membranes. […] To evaluate the effect of inhibitors on cell cycle progression, cells were treated with inhibitors at indicated dose or DMSO control and then harvested, fixed with 70% ethanol pretreated with RNase, and stained with propidium iodide (PI) (Sigma) as previously described for flow cytometry analysis. For the detection of apoptosis, cells were cultured for 24 h in medium with inhibitors at indicated dose or DMSO control and harvested for SDS-PAGE and Western blotting. The siRNA or drug treatment-induced apoptosis was detected by Western blot analysis of the cleavage of PARP and caspase-3.

[12] = Homo sapiens, MDA-MB-468, Alisertib 0.5 μM

With NC(=O)c1ccc(Nc2ncc(F)c(Nc3ccccc3)n2)cc1 [AJI-100] the IC50 (Aurora A) was 5.4 nM, the IC50 (Aurora B) was 14 nM and the IC50 (JAK2) was 51 nM. For the same compound, the IC50 (MDA-MB-468 cells [1]) was 3600 nM, the “colony formation in soft agar” value (MDA-MB-468 cells [2]; MDA-MB-468, increasing concentrations) was “inhibited colony formation” and the inhibition at 5 µM (MDA-MB-468 cells [3]; Homo sapiens, MDA-MB-468, 5 μM, 48 hr) was 41.1%. The inhibition at 5 µM (MDA-MB-468 cells [3]; Homo sapiens, MDA-MB-468, 5 μM, 72 hr) was 89.8%, the invaded cells (MDA-MB-468 cells [3]; MDA-MB-468, 5 μM, 48 hr, vehicle 723) was 426 cells and the invaded cells (MDA-MB-468 cells [3]; MDA-MB-468, 5 μM, 72 hr, vehicle 1020) was 104 cells. For the same compound, the “effect on phosphorylation of Histone H3 (Ser-10)” value [4] was “decreased”, the “effect on phosphorylation of STAT3 (Y705)” value ([5]; MDA-MB-468, increasing concentrations, 2 h) was “decreased” and the “tumor volume after 14 day treatment, representative mouse” value ([6]; regressed from 222, vehicle grew 211 to 357) was 158 mm3. For the same compound, the “average % change in tumor volume (regression)” value ([6]; vehicle grew by 40 %) was 9% and the “increase in mouse weights” value [7] was 0.04%.
Compound COc1cc(Nc2ncc3c(n2)-c2ccc(Cl)cc2C(c2c(F)cccc2OC)=NC3)ccc1C(=O)O [Alisertib] has an inhibition at 0.05 µM (MDA-MB-468 cells [1]; MDA-MB-468, Alisertib 0.05 μM) of 25.4%, an IC50 (MDA-MB-468 cells [1]) of 70 nM and an inhibition at 0.05 µM (HT29 cells; HT-29, 48 h, read-out: inhibition of proliferation) of 5%. It also gave an IC50 (HT29 cells; HT-29, HT29, MTT, 48 h) of 2000 nM, an inhibition at 0.5 µM (MDA-MB-468 cells [2]; [12]) of 49% and a soft agar colonies (MDA-MB-468 cells [2]; MDA-MB-468, Alisertib 0.5 μM, vehicle 131) of 67 colonies. For the same compound, the soft agar colonies (HT-29 cells [8]; vehicle 129) was 56 colonies, the inhibition at 2 µM (HT-29 cells [8]; Homo sapiens, read-out: inhibition of soft agar colonies) was 56.6% and the inhibition at 0.5 µM (MDA-MB-468 cells [3]; [12]) was 24.5%. It also gave an invaded cells (MDA-MB-468 cells [3]; MDA-MB-468, Alisertib 0.5 μM, vehicle 344) of 260 cells, an invaded cells (HT-29 cells [9]; vehicle 1066) of 384 cells and an inhibition at 4 µM (HT-29 cells [9]; Homo sapiens) of 64%. The “effect on auto-phosphorylation of Aurora A” value [10] was “highly effective at inhibiting”, the “effect on P-Histone H3” value ([4]; MDA-MB-468, Alisertib 0.5 μM) was “inhibited P-Histone H3” and the “effect on phosphorylation of Histone H3 (Ser-10)” value [4] was “highly effective at inhibiting”. The “effect on P-STAT3” value ([5]; MDA-MB-468, Alisertib 0.5 μM) was “not P-STAT3”, the “effect on P-Histone H3” value (P-Histone H3) was “inhibited P-Histone H3” and the “effect on P-STAT3” value (P-STAT3) was “not P-STAT3”. The PARP cleavage [11] was “neither Alisertib nor Ruxolitinib induced PARP cleavage”.
